Experimental data from patent US7960133B2, “Methods of diagnosing leiomyoma by measuring catechol-O-methyltransferase” (The Board of Regents of the University of Texas System, priority 2003, dated 2011).

Assays:
Format in all cases: cell-based, rat
[1] = test system: ELT3 cells; test: ELT3 cell proliferation assay (Hoechst 33258 DNA quantitation); details: for reduction in cell proliferation compared to the untreated control / cell proliferation increase from the control: estrogen-free
Experimental: The Eker rat tumor-derived ELT-3 uterine leiomyoma cells were grown in DMEM medium supplemented with 10% fetal bovine serum and 1% antibiotics (containing 100 U/ml penicillin and 100 μg/ml streptomycin. The cells were maintained in the 100 mm tissue culture dishes at 37° C. air with 5% CO2 and 95% humidity. When experiments required the addition of exogenous compounds, cells were weaned by culturing for 48 h in phenol red-free medium containing 10% Charcoal-stripped fetal calf serum. For proliferation assays, cells were plated onto 24-well plates in DMEM at a density of 4000 cells/well. The cells allowed to attach overnight and then treated with E2 (10^−6 to 10^−10 M) without COMT-inhibitor or with 10 μM of COMT-inhibitor, 2-OHE2 (10^−5 to 10^−10 M) without COMT-I, or with 10 μM COMT-I, 2-OHE2, or 2-MeOHE2 (10^−5 to 10^−10 M). Control cells were treated with medium containing 10 μl of absolute ethanol. After 48 hours, the cells were harvested for the proliferation assay. For western blot analysis, the cells were seeded in 100 mm plates at final density of 2×10^6 cells/plate. […] Cells were harvested 48 hours after treatment and cell lysates were used for western blotting. A fluorometric assay, implementing Hoechst 33258 (bisbenzimide), was used for DNA quantitation. ELT3 cells (5×10^3 cells/well) were plated (described above). The cells were allowed to attach overnight at 37° C., and then the media were replaced with media containing the appropriate treatment. Control cells were treated with a 1:1000 dilution of absolute ethanol. The cells were incubated with the treatments for 48 hours, followed by cell lysis and DNA content determination using Hoechst dye solution (10 μl/100 ml distilled H2O). Fluorescence was measured (DyNA Quant 200; Hoefer Pharmacia Biotech) after excitation at 365 nm and fluorescence at 458 nm. Calf thymus DNA was used as a standard to determine DNA concentration.

[2] = test system: VEGF; test: Western blot of VEGF protein expression in ELT3 cells; details: 48 h, maximal inhibition at 10 μM
Experimental: (§1) The Eker rat tumor-derived ELT-3 uterine leiomyoma cells were grown in DMEM medium supplemented with 10% fetal bovine serum and 1% antibiotics (containing 100 U/ml penicillin and 100 μg/ml streptomycin. The cells were maintained in the 100 mm tissue culture dishes at 37° C. air with 5% CO2 and 95% humidity. When experiments required the addition of exogenous compounds, cells were weaned by culturing for 48 h in phenol red-free medium containing 10% Charcoal-stripped fetal calf serum. For proliferation assays, cells were plated onto 24-well plates in DMEM at a density of 4000 cells/well. The cells allowed to attach overnight and then treated with E2 (10^−6 to 10^−10 M) without COMT-inhibitor or with 10 μM of COMT-inhibitor, 2-OHE2 (10^−5 to 10^−10 M) without COMT-I, or with 10 μM COMT-I, 2-OHE2, or 2-MeOHE2 (10^−5 to 10^−10 M). Control cells were treated with medium containing 10 μl of absolute ethanol. […]
(§2) Immunoreactive proteins corresponding to VEGF, Cyclin D, Bcl-2, Bax, and β-actin were identified from total protein by western immunoblotting using specific monoclonal antibodies. […] After a 10-min spin at 10,000×g, the supernatant containing the total cell lysates were quantified using BCA Protein Assay Reagent (Pierce, Rockford, Ill.). […] The expression level of target proteins was quantitated densitometrically and normalized using β-actin expression.

[3] = test system: cyclin D1; test: Western blot of cyclin D1 protein expression in ELT3 cells; details: 48 h, maximal inhibition at 10 μM
Experimental: as §1, §2

[4] = test system: Bcl2; test: Western blot of Bcl2 protein expression in ELT3 cells; details: 48 h, maximal inhibition at 10 μM
Experimental: as §1, §2

[5] = test system: Bax; test: Western blot of Bax protein expression in ELT3 cells; details: 48 h
Experimental: as §1, §2

[6] = test system: estrogen response elements-luciferase reporter (AdERE-Luc) in ELT3 cells; test: AdERE-Luc reporter luciferase activity in ELT3 cells; details: for luciferase activity reduction compared to E2 (10^−8 M) alone: plus E2 10^−8 M
Description: Transfection of ELT3 cells with recombinant ERE-Luciferase adenovirus vector was achieved by maintaining ELT 3 cells as described above. For infection with estrogen response elements-luciferase reporter adenoviral vector (Ad ERE-Luc), the cells were allowed to grow to 60-70% confluence and then infected with Ad ERE-Luc vector at multiplicity of infection (MOI) of 100 plaque-forming units (PFU)/cell for two hours in infection medium containing 2% FCS and 1% penicillin/streptomycin. Then, the infection media were removed and replaced with regular media. The transduction efficiency of the adenoviral vectors in ELT3 cells was tested using Ad LacZ vector. β-Galactosidase expression was detected in 95-100% of ELT3 cells at 48 h after infection with Ad LacZ at a 100 PFU. Therefore, subsequent experiments were performed using similar amounts (100 PFU/cell) of recombinant Ad ERE-Luc vector.
ELT3 cells transfected with AdERE-Luc were treated with E2 and with or without COMT-I or with different concentrations of 2-OHE2 (10^−10 to 10^−6 M) with or with out COMT-I (10 μM). After 48 h incubation with chemicals, cells were harvested with 100 μl of cell lysis buffer (Promega). Luciferase activity was determined using Luciferase Assay Kit (Promega) according to the manufacturer's instructions.

[7] = COMT inhibitor 10^−5 M co-treatment, P<0.05

**Q.** `COc1cc2c(cc1O)CC[C@@H]1[C@@H]2CC[C@]2(C)[C@@H](O)CC[C@@H]12` [2-MeOHE2, 2-Methoxyestradiol] was tested. Which “cell proliferation reduction compared to the corresponding control” value (“cell proliferation reduction” for short) ([1]; 2-MeOHE2 5×10^−7 M) did it give?
**A.** 30%

**Q.** What about the “cell proliferation increase from the untreated control” value ([1]; 2-MeOHE2 5×10^−8 M) of the same compound?
**A.** 31%

**Q.** What about the “cell proliferation reduction” value ([1]; 2-MeOHE2 10^−5 M) of the same compound?
**A.** 65%

**Q.** What about the “cell proliferation reduction” value ([1]; 2-MeOHE2 10^−6 M) of the same compound?
**A.** 51%

**Q.** What about the “cell proliferation reduction” value ([1]; 2-MeOHE2 10^−7 M) of the same compound?
**A.** 16%

**Q.** And the “cell proliferation increase from the untreated control” value ([1]; 2-MeOHE2 10^−8 M)?
**A.** 24%

**Q.** And the “cell proliferation increase from the untreated control” value ([1]; 2-MeOHE2 10^−9 M)?
**A.** 20%

**Q.** And the “cell proliferation increase from the untreated control” value ([1]; 2-MeOHE2 10^−10 M)?
**A.** 15%

**Q.** And the VEGF protein expression [2]?
**A.** concentration-dependent inhibition

**Q.** What about the “cyclin D1 protein expression” value [3] of the same compound?
**A.** concentration-dependent inhibition

**Q.** What about the Bcl2 protein expression [4] of the same compound?
**A.** concentration-dependent inhibition

**Q.** And the Bax protein expression [5]?
**A.** gradient increase

**Q.** Which “reduction in cell proliferation compared to the untreated control” value ([1]; 2-OHE2 10^−6 M) does the source give for `C[C@]12CC[C@@H]3c4cc(O)c(O)cc4CC[C@H]3[C@@H]1CC[C@@H]2O` [2-OHE2, 2-Hydroxyestradiol] here?
**A.** 21%

**Q.** And the “reduction in cell proliferation compared to the untreated control” value ([1]; 2-OHE2 10^−7 M)?
**A.** 16%

**Q.** What about the cell proliferation increase ([1]; 2-OHE2 10^−8 M in the presence of E2 (10^−8 M)) of the same compound?
**A.** 33%

**Q.** What about the “cell proliferation increase from the control” value ([1]; 2-OHE2 10^−8 M) of the same compound?
**A.** 61%

**Q.** And the cell proliferation increase ([1]; 2-OHE2 10^−9 M in the presence of E2 (10^−8 M))?
**A.** 24%

**Q.** What about the “cell proliferation increase from the control” value ([1]; 2-OHE2 10^−9 M) of the same compound?
**A.** 54%

**Q.** And the cell proliferation increase ([1]; 2-OHE2 10^−10 M in the presence of E2 (10^−8 M))?
**A.** 10%

**Q.** What about the “cell proliferation increase from the control” value ([1]; 2-OHE2 10^−10 M) of the same compound?
**A.** 19%

**Q.** What about the “luciferase activity reduction compared to E2 (10^−8 M) alone” value (from here on “luciferase activity reduction”) ([6]; 2-OHE2 10^−6 M) of the same compound?
**A.** 39%

**Q.** What about the “luciferase activity reduction” value ([6]; 2-OHE2 10^−7 M) of the same compound?
**A.** 32%

**Q.** What about the “luciferase activity reduction” value ([6]; 2-OHE2 10^−8 M) of the same compound?
**A.** 32%

**Q.** What about the “luciferase activity reduction” value ([6]; 2-OHE2 10^−10 to 10^−9 M) of the same compound?
**A.** 30%

**Q.** And the AdERE-Luc activity ([6]; 2-OHE2, E2-free environment, concentration dependent)?
**A.** up-regulated

**Q.** What does the source list for `O=C(c1cc(O)c(O)c([N+](=O)[O-])c1)c1ccccc1F` [COMT inhibitor, R0 41-0960]?
**A.** effect on the antiproliferative effect of high dose 2-OHE2 [1, 7]: augmented; effect on the proliferative effect of low dose 2-OHE2 [1, 7]: consistently antagonized; effect on E2-induced cell proliferation ([1]; COMT inhibitor 10^−5 M with E2 10^−10 to 10^−6 M, P<0.05 at all estrogen concentrations): consistently inhibited; effect on E2-induced AdERE-luciferase at higher E2 concentrations ([6]; COMT inhibitor 10^−5 M, E2 10^-6 and 10^-5 M, P=0.056 and P=0.17): less pronounced; AdERE-luciferase compared to treatment with E2 alone ([6]; COMT inhibitor 10^−5 M, E2 10^-10 to 10^-7 M, P<0.05): significant down regulation

**Q.** For `C[C@]12CC[C@@H]3c4ccc(O)cc4CC[C@H]3[C@@H]1CC[C@@H]2O` [E2, β-Estradiol], which “concentration of maximum effect on ELT3 proliferation” value ([1]; E2 alone, 48 h) is on record?
**A.** 10^−8 M

**Q.** What about the “maximum up-regulation of AdERE-Luciferase” value ([6]; E2 10^−8 M) of the same compound?
**A.** 6 fold
